Results taken from publication PMC9410420, “Novel Labdane Diterpenes-Based Synthetic Derivatives: Identification of a Bifunctional Vasodilator That Inhibits CaV1.2 and Stimulates KCa1.1 Channels” (Marine Drugs, 2022).
Like-named read-outs stand apart in the source and are kept apart here.

How the values were obtained:
rat aorta rings = assay: Phenylephrine-induced contraction of rat aorta rings (pharmaco-mechanical coupling); conditions: Rattus norvegicus, 0.3 µM phenylephrine
Procedure: The abdominal aorta was gently cleaned of adipose and connective tissues and cut into 3-mm wide rings. These were mounted in organ baths between two parallel, L-shaped, stainless-steel hooks, with one fixed in place and the other connected to an isometric transducer. Rings were allowed to equilibrate for 60 min in modified Krebs-Henseleit solution (composition in mM: 118 NaCl, 4.75 KCl, 1.19 KH2PO4, 1.19 MgSO4, 25 NaHCO3, 11.5 glucose, 2.5 CaCl2, gassed with a 95% O2–5% CO2 gas mixture to create a pH of 7.4) under a passive tension of 1 g. During this equilibration period, the solution was changed every 15 min. Isometric tension was recorded using a digital PowerLab data acquisition system (PowerLab 8/30; ADInstruments). Ring viability was assessed by recording the response to 0.3 µM phenylephrine and 60 mM KCl. Where needed, the endothelium was removed by gently rubbing the lumen of the ring with a forceps tip. This procedure was validated by adding 10 µM acetylcholine at the plateau of phenylephrine-induced contraction; a relaxation greater than 70% or less than 10% denoted the presence or absence of functional endothelium, respectively.
Aorta rings were pre-contracted pharmaco-mechanically using 0.3 µM phenylephrine and electromechanically using 25–30 mM or 60 mM KCl. Once the contraction reached a plateau, the compound was added cumulatively into the organ bath. […] The response was calculated as the percentage of phenylephrine- or KCl-induced contraction (taken as 100%).

KCa1.1 channel = biological target: T1, KCa1.1 channel (Rattus norvegicus, UniProt Q62976); assay: Whole-cell patch-clamp, K+ current through KCa1.1 channels (IKCa1.1) in tail artery myocytes; assay type: cell-based; conditions: 3, 10 and 30 µM cumulative; membrane potential 30–70 mV, Vh −40 mV
T1 construct: IKCa1.1 measured in tail artery myocytes; endogenous in cells; host or cells: freshly isolated rat tail main artery smooth muscle cells
Procedure: The tail main artery was dissected free of its connective tissue, and smooth muscle cells were freshly isolated under the following conditions. […] This solution was gently bubbled and stirred with a 95% O2–5% CO2 gas mixture, as previously described. Cells stored in 0.05 mM Ca^2+ external solution containing 20 mM taurine and 0.5 mg/mL BSA at 4 °C under normal air were used for experiments within two days after isolation.
An Axopatch 200B patch-clamp amplifier (Molecular Devices Corporation, Sunnyvale, CA, USA) was used to generate and apply voltage pulses to the clamped cells and record the corresponding membrane currents. Recording electrodes were pulled from borosilicate glass capillaries (WPI, Berlin, Germany) and fire-polished to obtain a pipette resistance of 2–4 MΩ, when filled with an internal solution. At the beginning of each experiment, the junction potential between the pipette and bath solution was electronically adjusted to zero. […]
K^+ current through the KCa1.1 channel (IKCa1.1) (registration period 500 ms) was measured over a range of test potentials, from −20 mV to 70 mV from a Vh of −40 mV. […] The current–voltage relationships were calculated based on the values recorded during each test pulse (leakage corrected offline). […]

[1] = test system: Langendorff perfused rat heart; assay: Langendorff perfused rat heart (LVP, CPP, ECG); conditions: for QRS (intraventricular conduction time): control 13.4 ± 0.7; for PQ (atrioventricular conduction time): control 37.8 ± 1.8; for QTc (corrected QT): control 72.97 ± 1.7; for RR (cycle length): control 231.4 ± 7.8; for HR (frequency): control 261.9 ± 9.6
Procedure: Spontaneously beating heart was retrogradely perfused via the aorta at a constant perfusion flow in a Langendorff apparatus (Radnoti, Dublin, Ireland) with a physiological salt solution containing (mM) NaCl 118, KCl 4.7, CaCl2 2.5, MgSO4 1.2, NaHCO3 25, KH2PO4 1.2, glucose 11.5, Na pyruvate 2, and EDTA 0.5, and bubbled with a 95% O2−5% CO2 gas mixture (pH 7.4), and kept at 37 °C, as described elsewhere. Hearts were allowed to equilibrate for at least 20 min before 7 exposure. Heart contractility was measured as left ventricle developed pressure (LVDP) using a deionized water-filled latex balloon, connected to a pressure transducer (BLPR, WPI, Berlin, Germany) and inserted into the left ventricular cavity through the mitral valve. A pressure transducer (BLPR, WPI, Berlin, Germany) was placed in the inflow line, to record coronary perfusion pressure (CPP), a measure of coronary vascular resistance. Two steel electrodes, one positioned on the left atrium and the other on the apex of the heart, were used to record the surface electrocardiogram. Heart rate (HR) and RR (cycle length), PQ (atrioventricular conduction time), QRS (intraventricular conduction time), and QT (ventricular depolarization and repolarization) intervals were measured. The digital PowerLab data acquisition system (PowerLab 8/30; ADInstruments, Castle Hill, Australia) and Chart Pro for Windows software v. 7.3.7 (PowerLab; ADInstruments, Castle Hill, Australia) were used to record and analyze LVP, CPP, and ECG. As the QT interval is affected by HR changes (e.g., it shortens when HR increases), Bazett's formula normalized to average rat RR (QTc = QT/(RR/f)1/2) was routinely used to correct it, thus avoiding confounding effects. In this study, “f” (the normalization factor according to the basal RR duration) was 231.4 ms, as this was the average cardiac cycle length.

T1 sequence (Q62976 whole entry): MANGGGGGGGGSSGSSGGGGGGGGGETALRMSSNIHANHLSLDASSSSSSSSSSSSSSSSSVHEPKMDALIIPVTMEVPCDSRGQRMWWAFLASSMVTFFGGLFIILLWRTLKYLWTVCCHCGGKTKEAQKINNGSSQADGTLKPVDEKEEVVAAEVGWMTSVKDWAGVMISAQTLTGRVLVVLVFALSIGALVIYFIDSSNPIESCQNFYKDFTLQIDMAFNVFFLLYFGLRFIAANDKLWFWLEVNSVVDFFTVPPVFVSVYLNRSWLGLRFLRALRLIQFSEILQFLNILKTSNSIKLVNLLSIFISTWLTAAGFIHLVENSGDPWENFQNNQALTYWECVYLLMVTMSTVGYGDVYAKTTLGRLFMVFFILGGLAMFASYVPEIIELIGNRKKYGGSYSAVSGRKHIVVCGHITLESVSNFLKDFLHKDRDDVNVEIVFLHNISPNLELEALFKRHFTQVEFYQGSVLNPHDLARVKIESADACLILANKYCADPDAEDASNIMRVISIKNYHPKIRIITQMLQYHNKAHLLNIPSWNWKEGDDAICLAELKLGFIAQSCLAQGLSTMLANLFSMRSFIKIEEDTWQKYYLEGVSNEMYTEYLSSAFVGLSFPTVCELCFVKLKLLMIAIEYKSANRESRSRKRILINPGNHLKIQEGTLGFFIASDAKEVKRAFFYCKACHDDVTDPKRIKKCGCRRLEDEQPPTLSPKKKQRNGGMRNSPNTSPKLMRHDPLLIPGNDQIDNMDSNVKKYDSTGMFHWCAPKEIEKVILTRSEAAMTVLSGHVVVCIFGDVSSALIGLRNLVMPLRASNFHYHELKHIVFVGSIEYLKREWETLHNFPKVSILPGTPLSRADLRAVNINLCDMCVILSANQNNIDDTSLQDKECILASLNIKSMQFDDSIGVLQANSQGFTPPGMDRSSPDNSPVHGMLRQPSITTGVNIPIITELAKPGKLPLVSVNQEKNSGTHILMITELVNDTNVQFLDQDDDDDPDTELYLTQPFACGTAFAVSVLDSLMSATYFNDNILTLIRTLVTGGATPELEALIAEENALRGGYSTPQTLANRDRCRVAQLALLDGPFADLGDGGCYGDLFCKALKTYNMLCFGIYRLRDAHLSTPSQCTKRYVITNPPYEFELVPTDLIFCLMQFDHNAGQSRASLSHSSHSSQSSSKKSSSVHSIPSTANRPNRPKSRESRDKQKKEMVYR
T1 sequence (P97678 whole entry partner): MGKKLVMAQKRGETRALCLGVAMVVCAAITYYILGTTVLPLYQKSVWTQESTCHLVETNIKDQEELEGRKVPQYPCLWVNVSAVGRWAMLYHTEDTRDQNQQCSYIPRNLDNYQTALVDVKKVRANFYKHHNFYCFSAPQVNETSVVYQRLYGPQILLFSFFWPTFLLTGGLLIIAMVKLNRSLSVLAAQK

CC1(C)CCC[C@]2(C)[C@@H](CC(=O)Nc3ccccc3-n3cccc3)[C@](C)(O)CC[C@@H]12 [Compound 7]
Emax (rat aorta rings; endothelium-denuded rat aorta rings, read-out: Emax (percent maximal inhibition), phenylephrine-induced contraction, −Endothelium): ≤ 60%
Emax (rat aorta rings; endothelium-intact rat aorta rings, read-out: Emax (percent maximal inhibition), phenylephrine-induced contraction, +Endothelium): 8.6 ± 9.3%
Effect on IKCa1.1 (KCa1.1 channel): significant concentration-dependent stimulation of the current
QRS (intraventricular conduction time) ([1]; 1 µM): 13.6 ± 0.5 ms
PQ (atrioventricular conduction time) ([1]; 1 µM): 37.2 ± 2.0 ms
QTc (corrected QT) ([1]; 1 µM): 71.59 ± 0.8 ms
RR (cycle length) ([1]; 1 µM): 230.8 ± 7.4 ms
HR (frequency) ([1]; 1 µM): 261.8 ± 9.4 bpm
QRS (intraventricular conduction time) ([1]; 3 µM): 14.0 ± 0.6 ms
PQ (atrioventricular conduction time) ([1]; 3 µM): 37.4 ± 1.9 ms
QTc (corrected QT) ([1]; 3 µM): 72.65 ± 1.3 ms
RR (cycle length) ([1]; 3 µM): 231.8 ± 7.1 ms
HR (frequency) ([1]; 3 µM): 256.9 ± 8.3 bpm
QRS (intraventricular conduction time) ([1]; 10 µM): 13.9 ± 0.6 ms
PQ (atrioventricular conduction time) ([1]; 10 µM): 39.0 ± 1.9 ms
QTc (corrected QT) ([1]; 10 µM): 73.31 ± 1.2 ms
RR (cycle length) ([1]; 10 µM): 236.4 ± 7.1 ms
HR (frequency) ([1]; 10 µM): 255.3 ± 8.0 bpm
QRS (intraventricular conduction time) ([1]; 30 µM): 15.2 ± 0.8 ms
PQ (atrioventricular conduction time) ([1]; 30 µM): 42.2 ± 2.7 ms
QTc (corrected QT) ([1]; 30 µM): 75.13 ± 1.7 ms
RR (cycle length) ([1]; 30 µM): 249.8 ± 10.7 ms
HR (frequency) ([1]; 30 µM): 242.8 ± 11.5 bpm
Effect on coronary perfusion pressure (CPP) ([1]; 1–30 µM, n = 5): significantly decreased CPP
Effect on left ventricular pressure (LVP) ([1]; 1–30 µM, n = 5): leaving LVP unaltered
